Experimental data from ChEMBL document CHEMBL4706491, “Discovery of novel N-sulfonamide-tetrahydroquinolines as potent retinoic acid receptor-related orphan receptor γt inverse agonists for the treatment of autoimmune diseases” (Eur J Med Chem, 2020).

Assays:
[1] = target: T1, Nuclear receptor ROR-gamma (Homo sapiens, UniProt P51449)
T1 sequence (P51449 whole entry): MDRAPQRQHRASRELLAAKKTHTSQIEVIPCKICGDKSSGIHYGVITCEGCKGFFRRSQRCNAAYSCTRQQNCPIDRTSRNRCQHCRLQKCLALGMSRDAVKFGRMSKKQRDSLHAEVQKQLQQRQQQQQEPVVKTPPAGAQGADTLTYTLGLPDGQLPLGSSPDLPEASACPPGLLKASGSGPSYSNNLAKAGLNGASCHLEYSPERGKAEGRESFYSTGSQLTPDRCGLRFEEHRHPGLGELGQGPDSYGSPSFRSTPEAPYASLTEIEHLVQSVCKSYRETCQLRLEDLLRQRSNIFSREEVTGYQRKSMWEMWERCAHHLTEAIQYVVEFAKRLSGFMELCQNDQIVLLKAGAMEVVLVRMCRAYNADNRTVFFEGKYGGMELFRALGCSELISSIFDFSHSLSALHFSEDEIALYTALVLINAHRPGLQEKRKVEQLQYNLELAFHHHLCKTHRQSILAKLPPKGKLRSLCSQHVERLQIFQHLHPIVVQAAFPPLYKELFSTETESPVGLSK

[2] = target: T1, Nuclear receptor ROR-gamma; test: Agonist activity at APC-labeled RORgammat LBD (unknown origin) incubated for 1 hr in presence of europium-labeled co-activator SRC1 by FRET assay
[3] = Half life in CD-1 mouse liver microsomes at 1 uM measured up to 60 mins in presence of NADPH by LC-MS/MS analysis
in vitro [4] = details: CD-1, mouse, liver
in vitro [5] = details: CD-1, mouse, liver microsomes

| SMILES | XC50 [1] [nM] | also measured |
| --- | --- | --- |
| CC(=O)N1CCN(c2ccc3c(c2)CCCN3S(=O)(=O)N(C)CCc2ccccc2)CC1 | 910 | – |
| CC(=O)N1CCN(c2ccc3c(c2)CCCN3S(=O)(=O)N(C)Cc2ccc(C(F)(F)F)cc2)CC1 | 1550 | – |
| CC(=O)N1CCN(c2ccc3c(c2)CCCN3S(=O)(=O)N(C)CCCc2ccccc2)CC1 | 7230 | – |
| CC(=O)N1CCN(c2ccc3c(c2)CCCN3S(=O)(=O)N(C)Cc2ccccc2Cl)CC1 | 86 | – |
| CC(=O)N1CCN(c2ccc3c(c2)CCCN3S(=O)(=O)c2ccccc2)CC1 | – | EC50 [2]: 4840 nM |
| CC(=O)N1CCN(c2ccc(CN(C3CCC3)S(=O)(=O)Cc3ccccc3)cc2)CC1 | – | half-life at 1 h, 1 µM [3]: 2.3 min; CLint scaled at 1 h, 1 µM (in vitro [4]): 2420 mL/min/kg; microsomal CLint at 1 h, 1 µM (in vitro [5]): 612 µL/min/mg |
| CC(=O)N1CCN(c2ccc3c(c2)CCCN3S(=O)(=O)CCc2ccccc2)CC1 | 906 | – |

The next lines start with results.

| XC50 [1] [nM] | SMILES | also measured |
| --- | --- | --- |
| 104 | CC(=O)N1CCN(c2ccc3c(c2)CCCN3S(=O)(=O)N(C)Cc2cccc(Cl)c2)CC1 | – |
| 768 | CC(=O)N1CCN(c2ccc3c(c2)CCCN3S(=O)(=O)N(C)Cc2cccc(C)c2)CC1 | – |
| 324 | CC(=O)N1CCN(c2ccc3c(c2)CCCN3S(=O)(=O)N(C)Cc2cccc(F)c2)CC1 | – |
| 143 | CC(=O)N1CCN(c2ccc3c(c2)CCCN3S(=O)(=O)N(C)Cc2ccccc2C)CC1 | – |
